Measurements taken from US20160038448A1, “THE INHIBITION OF THE TOXIC EFFECTS OF ISLET AMYLOID FORMATION BY FLURBIPROFEN AND FLURBIPROFEN DERIVATIVES” (The Research Foundation for the State University of New York, priority 2013, published 2016).
Changes are numbered by the printed parent chain. Entries after “also recorded” stand apart in the source; their conditions may differ. Each block holds one compound with its values, some of them ahead of it.

Experiments:
[1] = system: human IAPP transgenic mouse islets; assay: Amyloid formation induced in human IAPP transgenic mouse islets; format: cell-based; settings: example in present tense
Source text: Amyloid formation is induced in human IAPP transgenic mouse islets in the presence and absence of flurbiprofen or a flurbiprofen derivative.

A-beta(1-40) = target: T1, A-beta(1-40) (Homo sapiens, UniProt P05067); assay: Thioflavin-T assay of A-beta(1-40) amyloid formation; format: biochemical; settings: flurbiprofen 20 parts, A-beta(1-40) 1 part
T1 construct: A mixture of flurbiprofen (20 parts) and A-beta(1-40) (1 part)
T1 sequence (P05067 672-711): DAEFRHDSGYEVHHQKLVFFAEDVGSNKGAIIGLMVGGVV
Source text: A mixture of flurbiprofen (20 parts) and A-beta(1-40) (1 part) was monitored by fluorescence detected thioflavin-T assays. The assays monitored the time course of amyloid formation (amount vs time) in the presence and absence of flurbiprofen.

rat INS-1 beta-cells = assay: AlamarBlue cell viability of beta-cells given aliquots of the IAPP amyloid time course; format: cell-based; settings: for presence and toxic effects of intermediates of amyloid formation: human IAPP with compound
Protocol: FIG. 5. […] (A) A thioflavin-T monitored time course of amyloid formation in the presence and absence of flurbiprofen. […] 20 mM Tris-HCl buffer with 0.25% DMSO was used as the control.
The presence of toxic intermediates is reduced when amyloid formation is accelerated by use of flurbiprofen or a flurbiprofen derivative. A thioflavin-T monitored time course of amyloid formation by human IAPP was conducted in the presence and absence of flurbiprofen. Aliquots were removed at various time points and applied to rat INS-1 beta-cells; at thirty minutes, at 12 hours, at 48 hours. Cell viability as judged by AlamarBlue assays. 20 mM Tris-HCl buffer with 0.25% DMSO was used as the control.

[2] = NMR spectra and pulse field gradient NMR diffusion (aggregation of the compound); format: physicochemical
Protocol: Flurbiprofen was dissolved at 32 micro molar and at 640 micromolar and Nuclear Magnetic Resonance (NMR) spectra were recorded.
A sample of 640 micromolar Flurbiprofen was prepared and pulse field gradient NMR experiments were conducted to determine the diffusion coefficient of the compound. The diffusion coefficient is directly related to the hydrodynamic radius of the compound. The NMR intensity decay curve was monitored for the methyl group NMR signal. The best fit to the data yields a hydrodynamic radius of 3.9 Å.

human IAPP [3] = target: T2, human IAPP (Homo sapiens, UniProt P10997); assay: Fluorescence detected thioflavin-T assay of the time course of amyloid formation; format: biochemical
T2 construct: Mature, fully processed, Amylin is 37 residues in length, contains a disulfide bond between residues 2 and 7; made in house; host or cells: chemical solid-phase peptide synthesis (Fmoc), no expression host
T2 sequence (P10997 34-70 limits assumed): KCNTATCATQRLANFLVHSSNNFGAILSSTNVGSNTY
Protocol: Peptides were first dissolved in 100% hexafluoroisopropanol (HFIP) at a concentration 1.6 mM and then filtered to remove any preformed amyloid aggregates. For thioflavin-T fluorescence assays, aliquots were lyophilized and redissolved in pH 7.4, 20 mM Tris-HCl buffer at the desired concentration. Aspirin and Ketoprofen were prepared in 100% dimethyl sulfoxide (DMSO).
Solutions were prepared by adding pH 7.4, 20 mM Tris buffer and thioflavin-T to lyophilized dry peptides for a final peptide concentration of […]. For the studies of Aspirin and Ketoprofen, 0.25% DMSO was present in the solution. Measurements were made at 25° C. using a Beckman Coulter DTX880 plate reader without stirring. An excitation filter of 430 nm and an emission filter of 485 nm were used. To test disaggregate activity of Aspirin, peptide was first incubated in low-binding 96-wells plate and monitored by plate reader to ensure the formation of amyloid fibrils.
A mixture of flurbiprofen (1-20 parts) and human IAPP (1 part) was monitored by fluorescence detected thioflavin-T assays. The assays monitored the time course of amyloid formation (amount vs time) in the presence and absence of flurbiprofen.
A mixture of OH-flurbiprofen and human IAPP were monitored by fluorescence detected thioflavin-T assays. Three different concentrations (1:1 ratio, 1:10 ratio and 1:20 ratio of IAPP to OH-flurbiprofen) were tested against human IAPP without any added OH-flurbiprofen. The assays monitored the time course of amyloid formation (amount vs time) in the presence and absence of a flurbiprofen derivative.
Three different mixtures of NSAIDs (20 parts) and human IAPP (1 parts) were compared to each other and human IAPP alone by fluorescence detected thioflavin-T assays. The assays monitored the time course of amyloid formation (amount vs time) in the presence and absence of aspirin, naproxen and flurbiprofen.

H18Q human IAPP = target: T3, H18Q human IAPP (Homo sapiens, UniProt P10997, H51Q); assay: Thioflavin-T assay of mutant human IAPP amyloid formation (H18Q); format: biochemical; settings: 1:20 mixture of mutant with flurbiprofen
T3 construct: Mature, fully processed, Amylin is 37 residues in length, contains a disulfide bond between residues 2 and 7
T3 sequence (P10997 34-70 H51Q): T2 sequence (P10997 34-70 limits assumed) with H18Q
Source text: (§1) A mixture of flurbiprofen (20 parts) and human IAPP (1 part) was monitored by fluorescence detected thioflavin-T assays. The assays monitored the time course of amyloid formation (amount vs time) in the presence and absence of flurbiprofen. The effect of flurbiprofen in wild-type (WT) human IAPP, and in two mutants of human IAPP was monitored. In one mutant, all of the aromatic amino acids in human IAPP were replaced by […] human IAPP was examined. A second mutant in which […] human IAPP) was also tested.

[4] = system: human islet cell transplants; assay: Mice transplanted with human islet cell transplants; format: in vivo, mouse; settings: example in present tense
Protocol: Mice transplanted with human islet cell transplants are treated with flurbiprofen or a flurbiprofen derivative.

[5] = system: 3XL-IAPP mutant (F15L, F23L, Y37L human IAPP); assay: Thioflavin-T assay of mutant human IAPP amyloid formation (3XL); format: biochemical; settings: WT human IAPP and mutant IAPP compared
Source text: as §1

[6] = target: T4, 3XL-IAPP mutant (F15L, F23L, Y37L human IAPP) (Homo sapiens, UniProt P10997, F48L/F56L/Y70L); assay: as above; format: biochemical; settings: 1:20 mixture of mutant with flurbiprofen
T4 construct: Mature, fully processed, Amylin is 37 residues in length, contains a disulfide bond between residues 2 and 7
T4 sequence (P10997 34-70 F48L/F56L/Y70L): T2 sequence (P10997 34-70 limits assumed) with F15L, F23L, Y37L
Source text: as §1

human IAPP [7] = target: T2, human IAPP; assay: One and two dimensional IR spectroscopy of fibers formed with flurbiprofen; settings: IAPP:flurbiprofen 1:20; 0.5 mm human IAPP and 10 mM flurbiprofen
Protocol: One and two dimensional infrared (IR) spectroscopy was used to confirm the presence of beta-sheet structure. Amyloid is rich in beta-sheet structure. IR spectra were recorded of a mixture of […] human IAPP and 10 mM flurbiprofen.

[8] = target: T5, I26P human IAPP point mutant (Homo sapiens, UniProt P10997, I59P); assay: Thioflavin-T assay and TEM with non-amyloidogenic point mutant; format: biochemical; settings: 20 fold excess of Flurbiprofen; vesicles as control experiment
T5 construct: Mature, fully processed, Amylin is 37 residues in length, contains a disulfide bond between residues 2 and 7
T5 sequence (P10997 34-70 I59P): T2 sequence (P10997 34-70 limits assumed) with I26P
Protocol: The […] human IAPP point mutant was incubated with Flurbiprofen (20 fold excess of Flurbiprofen) and the mixture was monitored by fluorescence detected thioflavin-T assays. […] Transmission electron microscopy was used to confirm the absence of amyloid. The […] human IAPP point mutant was incubated with 100 nm vesicles composed of 100% anionic lipids as a control experiment. The mixture was monitored by fluorescence detected thioflavin-T assays. […] Transmission electron microscopy was used to confirm the presence of amyloid.

human IAPP [9] = target: T2, human IAPP; assay: Seeding experiments monitored by thioflavin-T; format: biochemical; settings: 10% seeds by mass from 1:20 IAPP:flurbiprofen mixture
Protocol: Seeding experiments were conducted using the products of the experiment conducted with the mixture of flurbiprofen (20 parts) and human IAPP. Seeding refers to the addition of a small […] of pre-formed amyloid fibers to an initially unaggerated solution of polypeptide. Addition of the amyloid fibers leads to a by passing of the lag phase. […] 10% seeds, by mass, were added to unaggerated human IAPP and amyloid formation monitored by fluorescence detected thioflavin-T assays.

human IAPP (amylin) = target: T6, human IAPP (amylin) (Homo sapiens, UniProt P10997); assay: Transmission electron microscopy of amyloid fibrils; format: biochemical; settings: 20-fold excess of NSAID over human IAPP, end of kinetic experiment
T6 construct: Mature, fully processed, Amylin is 37 residues in length, contains a disulfide bond between residues 2 and 7; made in house; host or cells: chemical solid-phase peptide synthesis (Fmoc), no expression host
T6 sequence (P10997 34-70 limits assumed): T2 sequence (P10997 34-70 limits assumed)
Protocol: TEM was performed at the Life Science Microscopy Center at Stony Brook University. Aliquots were removed from the same solutions that were used for the fluorescence measurements. 5 μL of peptide solution was placed on carbon-coated Formvar 300 mesh copper grid for one minute and then negatively stained with saturated uranyl acetate for another one minute.

[10] = target: T7, pre-formed human amylin amyloid fibrils (Homo sapiens, UniProt P10997); assay: Disaggregation of pre-formed amylin amyloid fibrils (thioflavin-T and TEM); format: biochemical; settings: 20-fold excess added after amyloid formation was complete, up to 48 hours
T7 construct: Mature, fully processed, Amylin is 37 residues in length, contains a disulfide bond between residues 2 and 7; made in house; host or cells: chemical solid-phase peptide synthesis (Fmoc), no expression host
T7 sequence (P10997 34-70 limits assumed): T2 sequence (P10997 34-70 limits assumed)
Protocol: Solutions were prepared by adding pH 7.4, 20 mM Tris buffer and thioflavin-T to lyophilized dry peptides for a final peptide concentration of 16 M. For the studies of Aspirin and Ketoprofen, 0.25% DMSO was present in the solution. Measurements were made at 25° C. using a Beckman Coulter DTX880 plate reader without stirring. An excitation filter of 430 nm and an emission filter of 485 nm were used.

human amylin = target: T8, human amylin (Homo sapiens, UniProt P10997); assay: Right angle light scattering assay (RALS) without thioflavin-T; format: biochemical; settings: 20-fold excess of aspirin (320 μM), amylin 16 μM, no thioflavin-T
T8 construct: Mature, fully processed, Amylin is 37 residues in length, contains a disulfide bond between residues 2 and 7; made in house; host or cells: chemical solid-phase peptide synthesis (Fmoc), no expression host
T8 sequence (P10997 34-70 limits assumed): T2 sequence (P10997 34-70 limits assumed)
Protocol: Solutions were prepared by adding pH 7.4, 20 mM Tris buffer without thioflavin-T to lyophilized dry peptides for a final peptide concentration of 16 […] used an excitation and emission wavelength of 500 nm.

SMILES: CC(C(=O)O)c1ccc(-c2ccccc2)c(F)c1 (racemic) [Flurbiprofen, (RS)-2-(2-fluorobiphenyl-4-yl)propanoic acid]
toxic effects of amyloid formation in islets [1]: reduces the toxic effects of amyloid formation
effect on A-beta(1-40) amyloid formation kinetics (A-beta(1-40)): did not influence the kinetics of amyloid formation by A-beta(1-40); also recorded: does not accelerate amyloid formation by the Aβ1-40 peptide
protection of β-cells against IAPP induced toxicity (cell viability, AlamarBlue) (rat INS-1 beta-cells; aliquots at thirty minutes, 12 hours, 48 hours of IAPP time course with and without flurbiprofen): protects β-cells against IAPP induced toxicity
presence and toxic effects of intermediates of amyloid formation (rat INS-1 beta-cells): reduced the presence and toxic effects of intermediates of amyloid formation in a dose dependent fashion
presence and toxic effects of intermediates of amyloid formation (rat INS-1 beta-cells; listed as Flurbiprofen racemate): reduced the presence and toxic effects of intermediates of amyloid formation
presence and toxic effects of intermediates of amyloid formation (rat INS-1 beta-cells; listed as flurbiprofen): reduced
aggregation state of the compound (NMR peak positions and line widths) ([2]; 32 and 640 micro molar samples): independent of the concentration of the compound; also recorded: did not aggregate; also recorded: monomeric
hydrodynamic radius (PFG-NMR) ([2]; 640 micromolar, methyl resonance decay curve): 3.9 Å
effect on human IAPP amyloid formation (thioflavin-T time course) (human IAPP [3]; 1:1 ratio of human IAPP and compound): showed acceleration of amyloid formation
effect on human IAPP amyloid formation (thioflavin-T time course) (human IAPP [3]; 20 to 1 ratio of compound to human IAPP): strongest effect of accelerating human IAPP amyloid formation
effect on human IAPP amyloid formation (thioflavin-T time course) (human IAPP [3]; 20 to 1 ratio of compound to human IAPP, listed as Flurbiprofen racemate): accelerated islet amyloid formation
effect on human IAPP amyloid formation (thioflavin-T time course) (human IAPP [3]; 20 to 1 ratio of compound to human IAPP, listed as racemic mixture): equally effective
effect on human IAPP amyloid formation (thioflavin-T time course) (human IAPP [3]; IAPP:compound ratios 1:1 to 1:20, pH 7.4, 20 mM Tris, 25° C.): accelerated islet amyloid formation
effect on amyloid formation by H18Q-IAPP mutant (H18Q human IAPP): accelerates amyloid formation
effect on amyloid formation by H18Q-IAPP mutant (H18Q human IAPP; listed as flurbiprofen): effected the mutant the same way as it did the wild type
survival of islet cell transplants [4]: enhances the survival of the islet cell transplants
acceleration of amyloid formation and reduction of toxic effects of intermediates, WT human IAPP versus mutant IAPP [5]: about equally
effect on amyloid formation by 3XL-IAPP mutant [6]: had the same effect; also recorded: accelerates amyloid formation
β-structure of flurbiprofen induced aggregates (IR) (human IAPP [7]): rich in β-structure
induction of amyloid formation by I26P-IAPP (thioflavin-T, TEM) [8]: No increase in fluorescence is detected; also recorded: did not induced amyloid formation; also recorded: does not induce the non-amyloidogenic point mutant I26P-IAPP to form amyloid fibers
seeding of human IAPP amyloid formation by fibers formed with flurbiprofen (human IAPP [9]): extremely effective at seeding amyloid formation by human IAPP

amyloid fibrils by TEM in presence of NSAID (human IAPP (amylin)): no changes in amyloid formation
SMILES: CC(=O)Oc1ccccc1C(=O)O [Aspirin]
amyloid fibrils by TEM in presence of NSAID (human IAPP (amylin); listed as aspirin): Extensive matts of fibrils; also recorded: does not inhibit IAPP amyloid formation
disaggregation of pre-formed amylin amyloid fibrils [10]: unable to disassemble pre-formed amylin amyloid; also recorded: does not disaggregate pre-formed human amylin amyloid fibrils
disaggregation of pre-formed amylin amyloid fibrils ([10]; listed as aspirin): does not disaggregate amylin amyloid; also recorded: no effect on the thioflavine-T signal
inhibition of amyloid formation by human IAPP (amylin) (human IAPP [3]; 20 to 1 ratio of NSAID to human IAPP, pH 7.4, 25° C.): do not inhibit amylin amyloid formation; also recorded: no inhibition of amyloid; also recorded: does not inhibit amyloid formation by human amylin
final thioflavin-T intensity (human IAPP [3]; amylin 16 μM, aspirin up to 20-fold excess, pH 7.4, 25° C., 0.25% DMSO): no detectable effect on the final thioflavin-T intensity
rate of amyloid formation as judged by T50 (human IAPP [3]; amylin 16 μM, aspirin up to a 20-fold excess, pH 7.4, 25° C.): no detectable effect on the rate of amyloid formation
aggregation curves by right angle light scattering (human amylin): does not inhibit amyloid formation by human amylin
